Patent US6288091A, “Antiherpes virus compounds and methods for their preparation and use” (Boehringer Ingelheim Ltd., priority 1999, dated 2001)
pEC50: −log10 of the molar value. Read-outs that look alike come from different tables or passages of the source.

What was measured:
HSV-1 strain F or KOS = assay: Inhibition of herpes simplex virus (HSV-1) replication in cell culture (BHK-21 cells, glycoprotein C ELISA); assay type: cell-based
Summary of the method: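 BHK-21 clone 13 cells infected with HSV-1 F or KOS at MOI 0.05 PFU/cell for 1 h at 37°, washed, then treated with compound in α-MEM/2% FBS for 24 h. Late glycoprotein C quantified by ELISA (mAb C11, HRP/OPD, 450 nm); EC50 from % inhibition.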

HCMV (strain AD169) = assay: Inhibition of HCMV replication, ELISA assay (Hs-68 cells); assay type: cell-based, Human Cytomegalovirus (HCMV); details: read-out: ELISA CMV EC50
Summary of the method: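 Hs-68 fibroblasts at 80–90% confluency infected with HCMV AD169 at MOI 0.01 PFU/cell for 2 h, washed, then cultured 8 days at 37 °C with test compound in DMEM/5% FBS. Late protein p28 detected by ELISA (mAb UL99, HRP/OPD, 450 nm); EC50 from % inhibition of replication.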

[1] = Human alphaherpesvirus 1, BHK-21, Group 2 Table 1 entries
[2] = Human betaherpesvirus 5, AD169, Hs68, Group 2 Table 1 entries
[3] = Human alphaherpesvirus 1, BHK-21, Group 1 Table 6 entries
[4] = Human betaherpesvirus 5, AD169, Hs68, Group 1 Table 6 entries
[5] = Human alphaherpesvirus 1, BHK-21, Group 1 Table 5 entries
[6] = Human betaherpesvirus 5, AD169, Hs68, Group 1 Table 5 entries

Row | Compound | pEC50 (HSV-1 strain F or KOS; [1]) | pEC50 (HCMV (strain AD169); [2]) | pEC50 (HSV-1 strain F or KOS; [3]) | pEC50 (HCMV (strain AD169); [4]) | further results
1 | CCCCN(CCCC)C(=O)C(=O)Nc1ccc(-c2csc(N)n2)cc1 [Example 1, N-{4-(2-Amino-4-thiazolyl)phenyl}-N',N'-dibutylethanediamide] | – | – | – | – | pEC50 (HSV-1 strain F or KOS; Human alphaherpesvirus 1, BHK-21, Group 2 Table 2 entries): 5.54; pEC50 (HCMV (strain AD169); Human betaherpesvirus 5, AD169, Hs68, Group 2 Table 2 entries): 5.59
2 | CCCCN(CCCC)C(=O)Nc1ccc(-c2csc(N)n2)cc1 [Example 1, N-{4-(2-Amino-4-thiazolyl)phenyl}-N,N-dibutylurea] | 6.10 | 5.39 | – | – | –
3 | Nc1nc(-c2ccc(NC(=O)[C@@H]3CCC(=O)N3Cc3ccccc3)cc2)cs1 [Example 2] | – | – | 5.59 | 4.66 | –
4 | Nc1nc(-c2ccc(NC(=O)[C@H]3CCC(=O)N3CC3CCCCC3)cc2)cs1 [Example 3] | – | – | 5.68 | 5.85 | –
5 | CN(CCc1ccccn1)C(=O)Nc1ccc(-c2csc(N)n2)cc1 [Example 4] | 5.85 | 3.90 | – | – | –
6 | Nc1nc(-c2ccc(NC(=O)[C@@H]3CCCN3C(=O)c3ccccc3)cc2)cs1 [Example 5] | – | – | 6.77 | 4.20 | –
7 | Nc1nc(-c2ccc(NC(=O)[C@@H]3CCCN3C(=O)C3CCCCC3)cc2)cs1 [Example 6] | – | – | 7.80 | 4.55 | –
8 | CC(C)(C)OC(=O)N1CCC[C@@H]1C(=O)Nc1ccc(-c2csc(N)n2)cc1 [Example 8] | – | – | 5.74 | 4.96 | –
9 | Nc1nc(-c2ccc(NC(=O)[C@H]3CCCN3C(=O)c3ccccc3)cc2)cs1 [Example 9] | – | – | 6.23 | 6.52 | –
10 | CN(C(=O)OC(C)(C)C)[C@@H](Cc1ccccc1)C(=O)Nc1ccc(-c2csc(N)n2)cc1 [Example 10] | – | – | – | – | pEC50 (HSV-1 strain F or KOS; [5]): 7.23; pEC50 (HCMV (strain AD169); [6]): 5.60
11 | Nc1nc(-c2ccc(NC(=O)[C@H]3CCCN3C(=O)C3CCCCC3)cc2)cs1 [Example 10] | – | – | 7.60 | 6.22 | –
12 | CCCC(CCC)NC(=O)Nc1ccc(-c2csc(N)n2)cc1 [Example 11] | 5.10 | 5.89 | – | – | –
13 | Nc1nc(-c2ccc(NC(=O)[C@H](Cc3ccccc3)N(Cc3ccccc3)C(=O)C3CCCCC3)cc2)cs1 [Example 11] | – | – | – | – | pEC50 (HSV-1 strain F or KOS; [5]): 6.29; pEC50 (HCMV (strain AD169); [6]): 5.85
14 | CC(C)(C)NC(=O)Nc1ccc(-c2csc(N)n2)cc1 [Example 12] | 5.36 | 5.22 | – | – | –
15 | CN(CCc1ccccn1)C(=O)Nc1ccc(-c2csc(NC(=O)OC(C)(C)C)n2)cc1 [Example 14] | 5.49 | 5.82 | – | – | –
16 | CCCCN(CCCC)C(=O)Nc1ccc(-c2csc(NC(=O)OC(C)(C)C)n2)cc1 [Example 15] | < 5.22 | 6.00 | – | – | –
17 | CC(C)(C)CC(=O)N[C@@H](Cc1ccccc1)C(=O)Nc1ccc(-c2csc(N)n2)cc1 [Example 19] | – | – | – | – | pEC50 (HSV-1 strain F or KOS; [5]): 7.40; pEC50 (HCMV (strain AD169); [6]): 5.42
18 | Nc1nc(-c2ccc(NC(=O)[C@H](Cc3ccccc3)NS(=O)(=O)N3CCOCC3)cc2)cs1 [Example 25] | – | – | – | – | pEC50 (HSV-1 strain F or KOS; [5]): 7.00; pEC50 (HCMV (strain AD169); [6]): 6.22
